Laboratory results taken from patent US20130225830A1, “POLYMORPHS OF FEBUXOSTAT” (MAPI PHARMA LIMITED, priority 2010, published 2013).

What was measured:
Assay type in all cases: physicochemical
[1] = Aqueous solubility measurements; conditions: for pH: final pH of saturated solution
Summary of the method: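 Febuxostat form shaken 24 h at 25° C in water, USP buffers pH 1.2-7.4, 0.01/0.1 N HCl, SGF, FaSSIF (pH 6.5) or FeSSIF (pH 5.0). Saturated solution filtered and filtrate concentration measured by HPLC, final pH recorded; duplicates.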

[2] = Hygroscopicity measurements (DVS sorption/desorption profiles); conditions: 25° C.
[3] = Bulk and tapped density measurements
Summary of the method: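 Febuxostat forms passed through a 1.0 mm screen, weighed into a 10 mL graduated cylinder and leveled without compacting. Bulk density = mass/unsettled volume. Tapped density = mass/final volume after 500 then 750 further taps, Vb accepted when within 2% of Va.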

[4] = Physical stability measurements (XRPD, DSC, TGA)
Description: Testing conditions: 40° C., 60° C., 40° C./RH 75%, 60° C./RH 75%, light
Testing procedure: About 50 mg of a febuxostat form were weighed in glass vial for testing the physical stability and were stored under different conditions for 1 week and 2 weeks, separately. The same febuxostat form was stored at −20° C. as control. XRPD, DSC and TGA of each of the febuxostat forms were measured at the end of the first and second weeks.

[5] = media 0.01N HCl, 24 hours at 25° C.
[6] = media 0.1N HCl, 24 hours at 25° C.
[7] = media FaSSIF, 24 hours at 25° C.
[8] = media FeSSIF, 24 hours at 25° C.
[9] = media pH 1.2 (USP), 24 hours at 25° C.
[10] = media pH 4.5 (USP), 24 hours at 25° C.
[11] = media pH 6.8 (USP), 24 hours at 25° C.
[12] = media pH 7.4 (USP), 24 hours at 25° C.
[13] = media water, 24 hours at 25° C.

## Cc1nc(-c2ccc(OCC(C)C)c(C#N)c2)sc1C(=O)O [Form XI, 2-(3-cyano-4-isobutoxyphenyl)-4-methyl-5-thiazolecarboxylic acid]
[1]; [5]
  pH: 1.981
  Visual solubility: few particles
[1]; [6]
  pH: 0.967
  Visual solubility: few particles
[1]; [7]
  pH: 6.336
  HPLC solubility: 521.19 µg/mL
  Visual solubility: Turbid + few particles
[1]; [8]
  pH: 4.998
  HPLC solubility: 149.95 µg/mL
  Visual solubility: Turbid + few particles
[1]; media SGF, 24 hours at 25° C.
  pH: 2.114
  Visual solubility: few particles
[1]; [9]
  pH: 1.132
  Visual solubility: few particles
[1]; [10]
  pH: 4.479
  HPLC solubility: 0.49 µg/mL
  Visual solubility: few particles
[1]; [11]
  pH: 6.684
  HPLC solubility: 931.90 µg/mL
  Visual solubility: Turbid + few particles
[1]; [12]
  pH: 6.905
  HPLC solubility: 4464.94 µg/mL
  Visual solubility: Slightly turbid + few
[1]; media water, shaken 24 hours at 25° C.
  pH: 8.106
[1]; [13]
  HPLC solubility: 33.82 µg/mL
  Visual solubility: Turbid + few particles
[1]; pH1.2 USP buffer, 0.01N HCl, 0.1N HCl and SGF
  aqueous solubility (in words): poor solubility
[1]; pH6.8 USP buffer, pH7.4 USP buffer, FaSSIF, FeSSIF
  aqueous solubility (in words): good solubility
[2]; 0-90% relative humidity
  Hygroscopicity classification: hygroscopic
[2]; Target % P/P0 0.0
  Change in Mass (%) - ref, Desorption: −0.052%
  Change in Mass (%) - ref, Sorption: 0.001%
[2]; Target % P/P0 10.0
  Change in Mass (%) - ref, Desorption: 0.973%
  Change in Mass (%) - ref, Hysteresis: 0.164%
  Change in Mass (%) - ref, Sorption: 0.810%
[2]; Target % P/P0 20.0
  Change in Mass (%) - ref, Desorption: 1.210%
  Change in Mass (%) - ref, Hysteresis: 0.146%
  Change in Mass (%) - ref, Sorption: 1.064%
[2]; Target % P/P0 30.0
  Change in Mass (%) - ref, Desorption: 1.425%
  Change in Mass (%) - ref, Hysteresis: 0.203%
  Change in Mass (%) - ref, Sorption: 1.222%
[2]; Target % P/P0 40.0
  Change in Mass (%) - ref, Desorption: 1.560%
  Change in Mass (%) - ref, Hysteresis: 0.150%
  Change in Mass (%) - ref, Sorption: 1.410%
[2]; Target % P/P0 50.0
  Change in Mass (%) - ref, Desorption: 1.728%
  Change in Mass (%) - ref, Hysteresis: 0.169%
  Change in Mass (%) - ref, Sorption: 1.559%
[2]; Target % P/P0 60.0
  Change in Mass (%) - ref, Desorption: 1.948%
  Change in Mass (%) - ref, Hysteresis: 0.166%
  Change in Mass (%) - ref, Sorption: 1.782%
[2]; Target % P/P0 70.0
  Change in Mass (%) - ref, Desorption: 2.187%
  Change in Mass (%) - ref, Hysteresis: 0.130%
  Change in Mass (%) - ref, Sorption: 2.057%
[2]; Target % P/P0 80.0
  Change in Mass (%) - ref, Desorption: 2.503%
  Change in Mass (%) - ref, Hysteresis: 0.089%
  Change in Mass (%) - ref, Sorption: 2.414%
[2]; Target % P/P0 90.0
  Change in Mass (%) - ref, Desorption: 3.111%
  Change in Mass (%) - ref, Sorption: 3.111%
[3]
  Bulk Density: 0.346 g/mL
  Tapped Density: 0.553 g/mL
[3]; compared among forms V, IX, XI and form G
  bulk and tapped densities (in words): adequate bulk and tapped densities
[4]; 40° C., 60° C. and light at the end of the first and second week
  physical stability (XRPD, DSC, TGA): stable
[4]; 40° C./75% RH at the end of the first week
  physical stability (XRPD, DSC, TGA), form conversion: completely converted to form G
[4]; 40° C./75% RH at the end of the second week
  physical stability (XRPD, DSC, TGA), form conversion: completely converted to form G
[4]; 60° C./75% RH at the end of the first and second weeks
  physical stability (XRPD, DSC, TGA), form conversion: completely converted to form G
